Reference: the NIST ThermoML archive (doi:10.1016/j.fluid.2012.08.030)
± gives the expanded uncertainty stated by the source.

Tests used:
[1] = Liquid; for mass density: 101 kPa, Vibrating tube method; for vapor or sublimation pressure: Ebulliometric method (Recirculating still)
[2] = xn = mol fraction of the nth substance listed; conditions: 101 kPa, Liquid, Vibrating tube method

CCCCOCCO [2-butoxyethan-1-ol]
[1]
Conditions	mass density [kg/m3]	vapor or sublimation pressure [kPa]
303.15 K	892.28 ± 0.12	–
308.15 K	888.19 ± 0.11	–
313.15 K	884.17 ± 0.12	–
318.15 K	880.02 ± 0.12	–
406.8 K	–	28.1 ± 6
412.1 K	–	34.2 ± 6
417.35 K	–	41.3 ± 6
421.57 K	–	47.9 ± 6
424.9 K	–	53.7 ± 6
428.43 K	–	60.5 ± 6
432.22 K	–	68.6 ± 6
435.52 K	–	76.4 ± 6
437.42 K	–	81.2 ± 6
440.2 K	–	88.7 ± 6
442.49 K	–	95.3 ± 6

CCCCOCCO [2-butoxyethan-1-ol] + CN1CCCC1=O
mass density [kg/m3], [2]
Conditions	303.15 K	308.15 K	313.15 K	318.15 K
x2 = 0	892.28 ± 0.11	888.19 ± 0.11	884.17 ± 0.12	880.02 ± 0.12
x2 = 0.132	914.72 ± 0.35	911.2 ± 0.35	907.8 ± 0.36	904.37 ± 0.37
x2 = 0.255	934.22 ± 0.32	931.07 ± 0.33	928.06 ± 0.33	925.08 ± 0.34
x2 = 0.369	951.2 ± 0.3	948.27 ± 0.31	945.46 ± 0.31	942.72 ± 0.31
x2 = 0.477	966.04 ± 0.28	963.19 ± 0.28	960.43 ± 0.28	957.74 ± 0.28
x2 = 0.577	979 ± 0.26	976.12 ± 0.26	973.27 ± 0.26	970.48 ± 0.26
x2 = 0.672	990.36 ± 0.25	987.35 ± 0.24	984.32 ± 0.24	981.3 ± 0.23
x2 = 0.761	1000.3 ± 0.23	997.1 ± 0.23	993.8 ± 0.22	990.46 ± 0.21
x2 = 0.845	1009.04 ± 0.22	1005.59 ± 0.21	1001.93 ± 0.2	998.18 ± 0.19
x2 = 0.925	1016.72 ± 0.21	1012.95 ± 0.2	1008.89 ± 0.19	1004.66 ± 0.18
x2 = 0.948	1018.83 ± 0.2	1014.97 ± 0.19	1010.77 ± 0.18	1006.39 ± 0.17
x2 = 0.963	1020.19 ± 0.2	1016.26 ± 0.19	1011.97 ± 0.18	1007.49 ± 0.17
x2 = 0.978	1021.52 ± 0.2	1017.52 ± 0.19	1013.14 ± 0.18	1008.55 ± 0.16
x2 = 0.993	1022.82 ± 0.2	1018.74 ± 0.18	1014.27 ± 0.17	1009.57 ± 0.16

CCOCCO [2-ethoxyethan-1-ol]
[1]
Conditions	mass density [kg/m3]	vapor or sublimation pressure [kPa]
303.15 K	921.21 ± 0.11	–
308.15 K	916.48 ± 0.11	–
313.15 K	911.88 ± 0.11	–
318.15 K	907.79 ± 0.11	–
373.48 K	–	28.1 ± 6
378.36 K	–	34.2 ± 6
383.18 K	–	41.3 ± 6
387.06 K	–	47.9 ± 6
390.12 K	–	53.7 ± 6
393.37 K	–	60.5 ± 6
396.86 K	–	68.6 ± 6
399.9 K	–	76.4 ± 6
401.65 K	–	81.2 ± 6
404.22 K	–	88.7 ± 6
406.33 K	–	95.3 ± 6

CCOCCO [2-ethoxyethan-1-ol] + CN1CCCC1=O
mass density [kg/m3], [2]
Conditions	303.15 K	308.15 K	313.15 K	318.15 K
x2 = 0	921.21 ± 0.11	916.48 ± 0.11	911.88 ± 0.11	907.79 ± 0.11
x2 = 0.101	936.06 ± 0.3	931.85 ± 0.31	927.8 ± 0.32	924.28 ± 0.33
x2 = 0.202	949.87 ± 0.28	946.07 ± 0.29	942.45 ± 0.3	939.35 ± 0.3
x2 = 0.302	962.64 ± 0.26	959.15 ± 0.27	955.84 ± 0.27	953.02 ± 0.28
x2 = 0.402	974.38 ± 0.24	971.1 ± 0.24	967.97 ± 0.25	965.3 ± 0.25
x2 = 0.503	985.1 ± 0.22	981.93 ± 0.22	978.86 ± 0.22	976.19 ± 0.22
x2 = 0.602	994.78 ± 0.2	991.62 ± 0.2	988.5 ± 0.2	985.68 ± 0.2
x2 = 0.702	1003.45 ± 0.18	1000.2 ± 0.18	996.91 ± 0.18	993.82 ± 0.17
x2 = 0.802	1011.12 ± 0.17	1007.68 ± 0.17	1004.1 ± 0.16	1000.58 ± 0.15
x2 = 0.851	1014.58 ± 0.16	1011.01 ± 0.16	1007.23 ± 0.15	1003.46 ± 0.14
x2 = 0.901	1017.78 ± 0.15	1014.06 ± 0.15	1010.06 ± 0.14	1006 ± 0.13
x2 = 0.926	1019.29 ± 0.15	1015.48 ± 0.14	1011.37 ± 0.13	1007.14 ± 0.12
x2 = 0.951	1020.74 ± 0.15	1016.84 ± 0.14	1012.59 ± 0.13	1008.2 ± 0.12
x2 = 0.982	1022.5 ± 0.14	1018.47 ± 0.14	1014.05 ± 0.13	1009.43 ± 0.12
